Measurements taken from patent US8022206B2 (OSI Pharmaceuticals, LLC, priority 2008, dated 2011).

Assays:
RON (human) = RON (human) (Homo sapiens, UniProt Q04912); assay: RON (human) AlphaScreen kinase assay, Km of ATP; type: biochemical; settings: AlphaScreen, Km of ATP; read-out: RON biochemical IC50
Method in brief: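 Detection used PT66 AlphaScreen beads added in Tris pH 7.5/NaCl/EDTA/BSA buffer, read after 1 h incubation. Vehicle-only DMSO wells served as controls.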

MET (human) = MET (human) (Homo sapiens, UniProt P08581); assay: MET (human) AlphaScreen kinase assay, Km of ATP; type: biochemical; settings: AlphaScreen, Km of ATP; read-out: Met biochemical IC50
Method in brief: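 Human MET at lot-optimised concentration in 50 mM Tris pH 7.4 buffer with 1 mM DTT, compound at 1% DMSO final; enzyme starts the reaction, 60 min at RT.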

Chain of RON (human) (Q04912 25-1400): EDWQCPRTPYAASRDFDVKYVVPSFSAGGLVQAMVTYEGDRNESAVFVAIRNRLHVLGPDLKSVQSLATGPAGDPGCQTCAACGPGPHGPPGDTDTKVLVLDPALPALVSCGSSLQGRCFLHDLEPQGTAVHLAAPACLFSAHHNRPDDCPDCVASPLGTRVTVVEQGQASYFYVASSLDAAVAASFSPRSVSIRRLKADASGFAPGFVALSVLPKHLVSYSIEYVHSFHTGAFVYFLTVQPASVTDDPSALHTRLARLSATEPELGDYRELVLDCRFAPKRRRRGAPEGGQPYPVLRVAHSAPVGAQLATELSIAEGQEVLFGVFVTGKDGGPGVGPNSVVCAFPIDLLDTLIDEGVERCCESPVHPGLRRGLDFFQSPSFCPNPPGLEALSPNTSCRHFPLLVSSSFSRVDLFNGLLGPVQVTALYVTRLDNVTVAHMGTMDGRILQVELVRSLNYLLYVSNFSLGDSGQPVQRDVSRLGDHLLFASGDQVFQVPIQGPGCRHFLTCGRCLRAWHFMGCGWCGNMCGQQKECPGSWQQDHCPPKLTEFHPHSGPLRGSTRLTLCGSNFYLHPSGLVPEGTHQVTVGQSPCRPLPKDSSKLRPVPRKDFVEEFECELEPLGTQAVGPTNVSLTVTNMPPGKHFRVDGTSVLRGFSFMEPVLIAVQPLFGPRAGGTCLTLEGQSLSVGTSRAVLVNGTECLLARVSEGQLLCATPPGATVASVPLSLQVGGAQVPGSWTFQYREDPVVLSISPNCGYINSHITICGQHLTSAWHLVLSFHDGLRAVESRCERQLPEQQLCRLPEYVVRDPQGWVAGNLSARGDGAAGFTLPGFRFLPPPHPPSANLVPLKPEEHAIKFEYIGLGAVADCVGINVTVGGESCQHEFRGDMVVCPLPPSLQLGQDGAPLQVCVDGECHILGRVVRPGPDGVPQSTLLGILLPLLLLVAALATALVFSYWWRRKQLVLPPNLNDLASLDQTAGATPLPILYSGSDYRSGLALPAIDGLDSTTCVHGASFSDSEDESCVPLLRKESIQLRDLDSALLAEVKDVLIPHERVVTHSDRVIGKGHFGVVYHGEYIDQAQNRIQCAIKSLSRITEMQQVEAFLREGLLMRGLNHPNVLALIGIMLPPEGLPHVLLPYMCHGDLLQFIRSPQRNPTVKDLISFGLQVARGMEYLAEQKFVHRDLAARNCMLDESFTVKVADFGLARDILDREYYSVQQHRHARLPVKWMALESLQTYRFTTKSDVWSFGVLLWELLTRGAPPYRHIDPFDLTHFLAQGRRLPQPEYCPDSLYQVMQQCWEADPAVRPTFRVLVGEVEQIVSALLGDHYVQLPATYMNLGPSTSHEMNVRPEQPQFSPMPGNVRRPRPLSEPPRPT
Chain of MET (human) (P08581 25-1390): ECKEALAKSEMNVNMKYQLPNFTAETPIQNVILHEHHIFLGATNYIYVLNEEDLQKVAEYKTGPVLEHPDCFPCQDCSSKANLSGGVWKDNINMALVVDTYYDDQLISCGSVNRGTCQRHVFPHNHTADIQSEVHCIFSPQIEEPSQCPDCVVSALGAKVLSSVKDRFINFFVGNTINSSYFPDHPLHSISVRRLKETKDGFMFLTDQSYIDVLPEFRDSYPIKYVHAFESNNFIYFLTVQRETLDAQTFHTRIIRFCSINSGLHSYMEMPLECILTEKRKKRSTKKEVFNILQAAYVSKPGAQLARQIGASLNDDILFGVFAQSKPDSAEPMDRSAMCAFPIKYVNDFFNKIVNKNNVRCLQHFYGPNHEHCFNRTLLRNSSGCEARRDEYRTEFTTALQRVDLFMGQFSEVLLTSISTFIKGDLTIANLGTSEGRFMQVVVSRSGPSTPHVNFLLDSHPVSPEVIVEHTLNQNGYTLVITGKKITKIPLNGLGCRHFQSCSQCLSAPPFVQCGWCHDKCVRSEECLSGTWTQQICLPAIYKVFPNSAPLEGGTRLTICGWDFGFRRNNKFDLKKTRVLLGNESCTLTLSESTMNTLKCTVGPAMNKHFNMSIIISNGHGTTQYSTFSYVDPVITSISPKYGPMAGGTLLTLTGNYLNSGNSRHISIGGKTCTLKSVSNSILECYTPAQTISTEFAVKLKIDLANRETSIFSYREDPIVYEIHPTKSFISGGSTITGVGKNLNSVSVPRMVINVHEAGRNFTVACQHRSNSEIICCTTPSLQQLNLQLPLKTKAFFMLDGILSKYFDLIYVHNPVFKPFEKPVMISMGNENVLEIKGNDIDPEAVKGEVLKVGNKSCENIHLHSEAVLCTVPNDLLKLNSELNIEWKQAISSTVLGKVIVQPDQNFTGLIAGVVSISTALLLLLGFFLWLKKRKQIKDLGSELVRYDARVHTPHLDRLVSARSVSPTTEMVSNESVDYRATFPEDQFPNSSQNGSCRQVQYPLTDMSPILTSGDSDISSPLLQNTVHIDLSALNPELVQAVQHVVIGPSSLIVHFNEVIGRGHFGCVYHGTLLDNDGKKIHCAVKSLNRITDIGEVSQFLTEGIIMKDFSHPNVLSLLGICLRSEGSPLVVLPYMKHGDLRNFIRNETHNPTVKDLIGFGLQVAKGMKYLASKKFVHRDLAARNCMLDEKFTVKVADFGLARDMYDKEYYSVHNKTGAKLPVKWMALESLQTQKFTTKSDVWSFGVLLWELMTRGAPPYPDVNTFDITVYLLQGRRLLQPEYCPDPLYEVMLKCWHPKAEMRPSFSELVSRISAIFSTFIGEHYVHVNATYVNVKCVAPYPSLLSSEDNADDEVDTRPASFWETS

| IC50 (RON (human)) | IC50 (MET (human)) | Structure (SMILES) |
| --- | --- | --- |
| < 500 nM | < 500 nM | C[C@@H](Oc1c(N)ncc2c(-c3csc(CN4CCC(O)CC4)c3)coc12)c1c(Cl)ccc(F)c1Cl [Example 306, 1-(4-{6-Amino-7-[(R)-1-(2,6-dichloro-3-fluorophenyl)ethoxy]furo[3,2-c]pyridin-3-yl}thiophen-2-ylmethyl)piperidin-4-ol] |
| < 500 nM | < 500 nM | C[C@@H](Oc1c(N)ncc2c(-c3ccc(N4CCN(C)CC4)cc3)coc12)c1c(Cl)ccc(F)c1Cl [Example 86, 7-[(R)-1-(2,6-Dichloro-3-fluor-phenyl)ethoxy]-3-[4-(4-methylpiperazin-1-yl)-phenyl]furo[3,2-c]pyridin-6-ylamine] |
| 500 to 5000 nM | < 500 nM | C[C@@H](Oc1c(N)ncc2c(-c3cccc(S(C)(=O)=O)c3)coc12)c1c(Cl)ccc(F)c1Cl [Example 67, 7-[(R)-1-(2,6-Dichloro-3-fluor-phenyl)ethoxy]-3-(3-methane-sulfonylphenyl)-furo[3,2-c]pyridin-6-ylamine] |
| 500 to 5000 nM | < 500 nM | C[C@@H](Oc1c(N)ncc2c(-c3cccc(C(=O)N4CCN(CCO)CC4)c3)coc12)c1c(Cl)ccc(F)c1Cl [Example 98, (3-{6-Amino-7-[(R)-1-(2,6-dichloro-3-fluorophenyl)ethoxy]-furo[3,2-c]pyridin-3-yl}phenyl)-[4-(2-hydroxyethyl)piperazin-1-yl]methanone] |
| 500 to 5000 nM | 500 to 5000 nM | C[C@@H](Oc1c(N)ncc2c(-c3cnn(C)c3)coc12)c1c(Cl)ccc(F)c1Cl [Example 4, 7-[(R)-1-(2,6-Dichloro-3-fluorophenyl)-ethoxy]-3-(1-methyl-1H-pyrazol-4-yl)-furo[3,2-c]pyridin-6-ylamine] |
| 500 to 5000 nM | 500 to 5000 nM | C[C@@H](Oc1c(N)ncc2c(CO)coc12)c1c(Cl)ccc(F)c1Cl [Example 194, {6-Amino-7-[(R)-1-(2,6-dichloro-3-fluorophenyl)ethoxy]furo[3,2-c]pyridin-3-yl}-methanol] |
| 500 to 5000 nM | 500 to 5000 nM | C[C@@H](Oc1c(N)ncc2c(-c3nccs3)coc12)c1c(Cl)ccc(F)c1Cl [Example 135, 7-[(R)-1-(2,6-Dichloro-3-fluorophenyl)-ethoxy]-3-thiazol-2-ylfuro[3,2-c]pyridin-6-ylamine] |
| 500 to 5000 nM | < 500 nM | CCN1CCC(n2cc(-c3coc4c(O[C@H](C)c5c(Cl)ccc(F)c5Cl)c(N)ncc34)cn2)CC1 [Example 278, 7-[(1R)-1-(2,6-Dichloro-3-fluorophenyl)ethoxy]-3-[1-(1-ethylpiperidin-4-yl)-1H-pyrazol-4-yl]furo[3,2-c]pyridin-6-amine] |
| 500 to 5000 nM | 500 to 5000 nM | C[C@@H](Oc1c(N)ncc2c(-c3ccsc3)coc12)c1c(Cl)ccc(F)c1Cl [Example 134, 7-[(R)-(2,6-Dichloro-3-fluorophenyl)ethoxy]-3-thiophen-3-ylfuro[3,2-c]pyridin-6-ylamine] |
| 500 to 5000 nM | < 500 nM | CC(C)NC(=O)N1CC=C(c2coc3c(O[C@H](C)c4c(Cl)ccc(F)c4Cl)c(N)ncc23)CC1 [Example 149, 4-{6-Amino-7-[(1R)-1-(2,6-dichloro-3-fluorophenyl)ethoxy]furo[3,2-c]pyridin-3-yl}-N-(propan-2-yl)-3,6-dihydropyridine-1(2H)-carboxamide] |
| 500 to 5000 nM | 500 to 5000 nM | C[C@@H](Oc1c(N)ncc2c(C3CCN(C(N)=O)CC3)coc12)c1c(Cl)ccc(F)c1Cl [Example 195, 4-{6-Amino-7-[(R)-1-(2,6-dichloro-3-fluorophenyl)ethoxy]furo[3,2-c]pyridin-3-yl}-piperidine-1-carboxamide] |
| 500 to 5000 nM | 500 to 5000 nM | CC(Oc1c(N)ncc2c(-c3cnn(C4CCNCC4)c3)coc12)c1ccc(Cl)cc1 (stereo not drawn) [Example 377, 7-[1-(4-Chlorophenyl)ethoxy]-3-(1-piperidin-4-yl-1H-pyrazol-4-yl)furo[3,2-c]pyridin-6-ylamine] |

The remaining lines, values behind:

| Structure (SMILES) | IC50 (RON (human)) | IC50 (MET (human)) |
| --- | --- | --- |
| Cn1c(Cc2ccccc2)ncc(-c2ccc(COc3c(N)ncc4ccoc34)cc2)c1=O [Example 467, 5-[4-(6-Aminofuro[3,2-c]pyridin-7-yloxymethyl)phenyl]-2-benzyl-3-methyl-3H-pyrimidin-4-one] | 5000 to 20000 nM | > 20000 nM |
| Nc1ncc2c(-c3cnn(C4CCNCC4)c3)coc2c1O[C@@H](c1ccccc1)C(F)(F)F [Example 391, 3-(1-Piperidin-4-yl-1H-pyrazol-4-yl)-7-((S)-2,2,2-trifluoro-1-phenylethoxy)furo[3,2-c]pyridin-6-ylamine] | 500 to 5000 nM | < 500 nM |
| Cn1c(Cc2ccccc2)ncc(-c2ccc(COc3c(N)ncc4c(Br)coc34)c(F)c2)c1=O [Example 466, 5-[4-(6-Amino-3-bromofuro[3,2-c]pyridin-7-yloxymethyl)-3-fluorophenyl]-2-benzyl-3-methyl-3H-pyrimidin-4-one] | 500 to 5000 nM | 500 to 5000 nM |
| C[C@@H](Oc1c(N)ncc2c(-c3cccc(C(=O)N(C)C)c3)coc12)c1c(Cl)ccc(F)c1Cl [Example 73, 3-{6-Amino-7-[(R)-1-(2,6-dichloro-3-fluorophenyl)ethoxy]-furo[3,2-c]pyridin-3-yl}-N,N-dimethylbenzamide] | 500 to 5000 nM | 500 to 5000 nM |
| C[C@@H]1CN(C(=O)N2CC=C(c3coc4c(O[C@H](C)c5c(Cl)ccc(F)c5Cl)c(N)ncc34)CC2)C[C@H](C)N1 (relative stereo) [Example 224, (4-{6-Amino-7-[(R)-1-(2,6-dichloro-3-fluorophenyl)ethoxy]-furo[3,2-c]pyridin-3-yl}-3,6-dihydro-2H-pyridin-1-yl)-((3R*,5S*)-3,5-dimethylpiperazin-1-yl)methanone] | < 500 nM | < 500 nM |
| C[C@@H]1CN[C@@H](C)CN1C(=O)c1ccc(-c2coc3c(O[C@H](C)c4c(Cl)ccc(F)c4Cl)c(N)ncc23)cc1 [Example 295] | 500 to 5000 nM | 500 to 5000 nM |
| COC(=O)c1csc(-c2coc3c(O[C@H](C)c4c(Cl)ccc(F)c4Cl)c(N)ncc23)c1 [Example 292, 5-{6-Amino-7-[(R)-1-(2,6-dichloro-3-fluorophenyl)ethoxy]furo[3,2-c]pyridin-3-yl}thiophene-3-carboxylic acid methyl ester] | 500 to 5000 nM | 500 to 5000 nM |
| C[C@@H](Oc1c(N)ncc2c(C3=CCN(/C(=N\C#N)N(C)C)CC3)coc12)c1c(Cl)ccc(F)c1Cl [Example 196, 4-{6-Amino-7-[(R)-1-(2,6-dichloro-3-fluorophenyl)ethoxy]-furo[3,2-c]pyridin-3-yl}-N,N-cyano-N,N-dimethyl-3,6-dihydro-2H-pyridine-1-carboxamidine] | 500 to 5000 nM | 500 to 5000 nM |
| Nc1ncc2c(-c3cnn(C4CCNCC4)c3)coc2c1O[C@H]1CCC[C@H]1c1ccccc1 [Example 407] | 500 to 5000 nM | < 500 nM |
| COCCCNC(=O)c1ccc(-c2coc3c(O[C@H](C)c4c(Cl)ccc(F)c4Cl)c(N)ncc23)cc1 [Example 286, 4-{6-Amino-7-[(R)-1-(2,6-dichloro-3-fluorophenyl)ethoxy]furo[3,2-c]pyridin-3-yl}-N-(3-methoxypropyl)-benzamide] | 500 to 5000 nM | 500 to 5000 nM |
| C[C@@H](Oc1c(N)ncc2c(C3=CCN(C(=O)[C@@H](N)Cc4cnc[nH]4)CC3)coc12)c1c(Cl)ccc(F)c1Cl [Example 263, (2S)-2-Amino-1-[4-{6-amino-7-[(1R)-1-(2,6-dichloro-3-fluoro-phenyl)ethoxy]furo[3,2-c]pyridin-3-yl}-3,6-dihydropyridin-1(2H)-yl]-3-(1H-imidazol-5-yl)propan-1-one] | < 500 nM | < 500 nM |
| C[C@@H](Oc1c(N)ncc2c(C3=CCN(C(=O)[C@@H](O)c4ccccc4)CC3)coc12)c1c(Cl)ccc(F)c1Cl [Example 265, (2S)-1-[4-{6-Amino-7-[(1R)-1-(2,6-dichloro-3-fluorophenyl)ethoxy]furo[3,2-c]pyridin-3-yl}-3,6-dihydropyridin-1(2H)-yl]-2-hydroxy-2-phenylethanone] | < 500 nM | 500 to 5000 nM |
| Nc1ncc2c(-c3cnn(C4CCNCC4)c3)coc2c1O[C@H]1CCC[C@H]1c1cccc(F)c1 [Example 408] | 500 to 5000 nM | 500 to 5000 nM |
| C[C@@H](Oc1c(N)ncc2c(C3=CCN(C(=O)[C@@H]4C[C@@H](F)CN4)CC3)coc12)c1c(Cl)ccc(F)c1Cl [Example 235, (4-{6-Amino-7-[(R)-1-(2,6-dichloro-3-fluorophenyl)ethoxy]-furo[3,2-c]pyridin-3-yl}-3,6-dihydro-2H-pyridin-1-yl)-((2S,4R)-4-fluoropyrrolidin-2-yl)-methanone] | < 500 nM | < 500 nM |
| CC(Oc1c(N)ncc2c(-c3cnn(C4CCNCC4)c3)coc12)c1cccnc1 (stereo not drawn) [Example 398, 3-(1-Piperidin-4-yl-1H-pyrazol-4-yl)-7-(1-pyridin-3-ylethoxy)furo[3,2-c]pyridin-6-ylamine] | 500 to 5000 nM | 500 to 5000 nM |
| C[C@@H]1CN(C(=O)c2ccc(-c3coc4c(O[C@H](C)c5c(Cl)ccc(F)c5Cl)c(N)ncc34)cc2)C[C@H](C)O1 [Example 297, (4-{6-Amino-7-[(R)-1-(2,6-dichloro-3-fluorophenyl)ethoxy]-furo[3,2-c]pyridin-3-yl}phenyl)-(2,6-cis-dimethylmorpholin-4-yl)methanone] | 500 to 5000 nM | 500 to 5000 nM |
| C[C@@H](Oc1c(N)ncc2c(-c3cccc(NS(=O)(=O)c4cccs4)c3)coc12)c1c(Cl)ccc(F)c1Cl [Example 247, Thiophene-2-sulfonic acid (3-{6-amino-7-[(R)-1-(2,6-dichloro-3-fluorophenyl)-ethoxy]-furo[3,2-c]pyridin-3-yl}phenyl)amide] | 5000 to 20000 nM | 500 to 5000 nM |
| C#CCC(Oc1c(N)ncc2c(C3=CCN(C(N)=O)CC3)coc12)c1c(Cl)ccc(F)c1Cl (stereo not drawn) [Example 459, 4-(6-Amino-7-{[1-(2,6-dichloro-3-fluorophenyl)but-3-yn-1-yl]oxy}furo[3,2-c]pyridin-3-yl)-3,6-dihydropyridine-1(2H)-carboxamide] | 500 to 5000 nM | < 500 nM |
